This is an account of results in patent publication US11667879B2, “Dynamic incubator system and method” (FOREVER LABS, INC., priority 2019, dated 2023).

The structures appear in SMILES notation.

The test deals with rat 9 L gliosarcoma cells. The experiment in a line: cell proliferation experiment, 9 L gliosarcoma cells. The test is classed as cell-based. The conditions noted are these: 10 uM Fisetin for 24 hours, then 48 hours without; 72 hours, dynamic incubation vs constant. As to the method: Referring now to FIG. 11, another graph illustrating the results of another cell proliferation experiment is depicted. In this experiment, rat 9 L gliosarcoma cells after 72 hours of culture in controlled temperature and gas concentration (constant 37° C. and 5% CO2) are compared with dynamic incubation using the dynamic incubator system 10 (cycling 37° C. and 5% CO2 for 8 hrs., then 38° C. and 5.5% CO2 for 30 min.). The experiment included 10 uM Fisetin. In addition, 100,000 9 L cells were plated in a T75 flask, containing 10 mL of α-MEM medium, with 10 uM Fisetin. In addition, the medium was refreshed after 24 hours without Fisetin, and the cells were then cultured for a 48 additional hours. […] P-values are from t-test compared to control.

As to `O=c1c(O)c(-c2ccc(O)c(O)c2)oc2cc(O)ccc12` [Fisetin], the “9 L cell numbers” value was “decreases cell numbers”.
